One series relates to healthy male volunteers. Description: Evaluation of safety clinical and laboratory parameters in healthy male volunteers. In kind it is in vivo, human. The following applies: 1 to 4 weeks, varying doses, during treatment and one month after. On the procedure:
Fifteen healthy male volunteers aged 25-52 were treated for periods ranging from 1 to 4 weeks with varying doses of M16ββ.

In series [1] the test system is obese dyslipidemic, insulin resistant non-diabetic patients. In words: Sensitization to insulin in obese dyslipidemic, insulin resistant non-diabetic patients. In kind it is in vivo, human. On the procedure:
Five obese dyslipidemic, insulin resistant non-diabetic patients were subjected to 4 weeks maintenance period on placebo followed by treatment p.o. with increasing daily doses ranging from 30-600 mg M16ββ per dose for a period of 4 weeks.

Setting [2] is: p.o. 30-600 mg per dose daily, 4 weeks.

1 compound from US20100240683A1, “COMBINATION THERAPY, COMPOSITION AND METHODS FOR THE TREATMENT OF CARDIOVASCULAR DISORDERS” (Syndromex Ltd., priority 2007, published 2010) can be followed below.

In the case of `CC(C)(CCCCCCCCCCC(C)(C)CC(=O)O)CC(=O)O` [M16ββ, 3,3,14,14-tetramethylhexadecane-1,16-dioic acid], the “drug-related changes in safety clinical (body weight, blood pressure, pulse, ECG) and laboratory (hematology, blood chemistry, urinary analysis) parameters” value with healthy male volunteers is recorded as “no drug-related changes were detected”. For the same compound, the hypolipidemic efficacy result in series [1] (at daily doses below 200 mg) is “substantial hypolipidemic efficacy”. In addition, in series [1] (setting [2]), the “HOMA (homeostatic model assessment)” value is reported as “decrease”, the LDL-C entry was “no change”, the VLDL-C result was “robust decrease” and the glucose uptake result is given as “increased”. Besides, in series [1] (setting [2]), the plasma insulin clearance entry was “increase”, the plasma insulin levels entry was “decrease”, the sensitization to insulin entry is recorded as “increased sensitization to insulin” and the tolerability result is on record as “well tolerated in all dosages”.
